Laboratory results as given in publication PMC10079573 (The journal of pain, 2022).

Key:
in vitro [1] = type: in vitro ADME, mice; conditions: mouse; for fraction unbound at 4 h, 5 µM: plasma
Description: (§1) The objective of this study was to evaluate protein binding test compounds in human and mice plasma. This was accomplished by spiking the test compounds at a concentration of 5 µM into human and mice plasma and dialyzing against buffer until equilibrium is achieved (4 hours). Analyte area ratios of the test compounds in plasma and buffer were determined to calculate unbound and bound percentages of compound to the plasma proteins.
(§2) Compound concentration : 5 µM
(§3) Rapid equilibrium dialysis was performed with a rapid equilibrium dialysis (RED) device containing dialysis membrane with a molecular weight cut-off of 8,000 Daltons. Each dialysis insert contains two chambers. The red chamber is for plasma while the white chamber is for buffer.
(§4) After sealing the RED device with an adhesive film, dialysis was performed in incubator at 37 °C with shaking at 100 RPM for 4 hours.
(§5) Two aliquots were frozen immediately (0 minute sample). The other two aliquots were incubated at 37 °C for 4 hours along with the RED device.
(§6) Following dialysis, an aliquot of 50 µL was removed from each well (both plasma and buffer side) and diluted with equal volume of opposite matrix (dialyzed with the other matrix) to nullify the matrix effect. Similarly, 50 µL of buffer was added to recovery and stability samples. An aliquot of 100 µL was submitted for LC-MS/MS analysis.
(§7) The peak area ratios (analyte versus internal standard) obtained was used to determine the fraction of compound bound to plasma proteins. The following equation was used to determine the extent of plasma protein binding:
(§8) Percent free drug = 100 x (peak area ratio in dialysate buffer)
(§9) Percent bound drug = 100 - % free drug
(§10) Recovery (%): 100 x (response plasma + response buffer) after dialysis / (response plasma) incubated at 37 °C in tubes along with RED device.
(§11) Stability (%):100 x (response plasma) incubated at 37 °C in tubes along with RED device / (response plasma) samples frozen at 0 min

in vitro [2] = type: in vitro ADME; conditions: human; for fraction unbound at 4 h, 5 µM: plasma
Description: as §1, §2, §3, §4, §5, §6, §7, §8, §9, §10, §11

PAR2 = biological target: T1, PAR2 (Mus musculus, UniProt P55086); test: Local intraplantar coinjection of C781 with PAR2 agonist 2AT: von Frey, Mouse Grimace Scale, hyperalgesic priming (PGE2); type: in vivo, C57BL6 mice; conditions: 2AT 20.9 ng intraplantar
T1 construct: from tissue; host or cells: living C57BL6 mice (hind paw / nociceptors)
T1 sequence (P55086 26-399): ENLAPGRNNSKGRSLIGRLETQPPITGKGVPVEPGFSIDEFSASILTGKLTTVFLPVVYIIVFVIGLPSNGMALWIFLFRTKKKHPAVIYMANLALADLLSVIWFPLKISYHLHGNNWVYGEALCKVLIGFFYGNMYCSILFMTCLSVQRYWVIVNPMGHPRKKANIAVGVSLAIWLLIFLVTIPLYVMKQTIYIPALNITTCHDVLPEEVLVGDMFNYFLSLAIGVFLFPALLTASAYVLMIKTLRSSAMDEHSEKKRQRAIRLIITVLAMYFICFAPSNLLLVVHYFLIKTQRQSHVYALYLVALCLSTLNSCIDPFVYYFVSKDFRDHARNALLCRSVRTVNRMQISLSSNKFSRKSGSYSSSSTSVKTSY
Description: Experimenters were blinded to treatment groups in all experiments. Animals were habituated to suspended acrylic chambers with each individual chamber measuring 11.4 × 7.6 × 7.6 cm and a wire mesh bottom (1 cm^2). Mechanical hypersensitivity was assessed using the manual von Frey hair test after spontaneous pain assessment using the Mouse Grimace Scale (MGS). This was done to assure that grimacing responses were not a result of mechanical stimulation.
MGS were determined using the MGS test as described by Langford and colleagues.[37] After habituation, the experimenter observed the mice and assigned intensity ratings (0 = not present, 1 = moderately present, 2 = severe) to the facial action units relative to baseline. The 5 action units identified are 1) orbital tightening, 2) nose bulge, 3) cheek bulge, 4) ear position, and 5) whisker change. The scores for all 5 action units are averaged to obtain the MGS score for each time point.
Hind paw withdrawal thresholds were calculated via the Dixon up-down method after applying calibrated von Frey filaments from Stoelting, Co. (cat# 58011) to the volar surface of the left hind paw.[12] […] The maximum filament weight used was 2 g.
Hyperalgesic priming was determined after allowing animals to return to baseline levels and injecting the previously injected paw with 100 ng of PGE2 (Cayman Chemical, Ann Arbor, MI). […]

CC(=O)CC(c1ccccc1)c1c(O)c2ccccc2oc1=O (stereo not drawn) [Warfarin]
recovery at 4 h, 5 µM (in vitro [1]; pH 7.4): 94%
fraction unbound at 4 h, 5 µM (in vitro [1]; pH 7.4, % Bound Mean ± SD): 0.061
fraction unbound at 4 h, 5 µM (in vitro [1]; pH 7.4, % Bound R1): 0.058
fraction unbound at 4 h, 5 µM (in vitro [1]; pH 7.4, % Bound R2): 0.057
fraction unbound at 4 h, 5 µM (in vitro [1]; pH 7.4, % Bound R3): 0.07
recovery at 4 h, 5 µM (in vitro [2]; pH 7.4): 97%
fraction unbound at 4 h, 5 µM (in vitro [2]; pH 7.4, % Bound Mean ± SD): 0.011
fraction unbound at 4 h, 5 µM (in vitro [2]; pH 7.4, % Bound R1): 0.012
fraction unbound at 4 h, 5 µM (in vitro [2]; pH 7.4, % Bound R2): 0.01
fraction unbound at 4 h, 5 µM (in vitro [2]; pH 7.4, % Bound R3): 0.011

2-aminothiazo-4-yl-LIGRL-NH2 [Compound 2AT]
Nociceptive behaviors evoked by agonist (mechanical hypersensitivity, facial grimacing) (PAR2): caused both mechanical hypersensitivity and facial grimacing
Hyperalgesic priming by agonist (response to PGE2) (PAR2; then PGE2 100 ng intraplantar): primed and exhibited mechanical allodynia and facial grimacing in response to PGE2
